Data from the NIST ThermoML archive (doi:10.1016/j.tca.2018.05.017).
± gives the expanded uncertainty stated by the source.

Details: Crystal; DTA

A Normal melting temperature of 72.20 ± 5 °C was found for CCCCCCCC[NH+](CCCCCCCC)CCCCCCCC.[Cl-] [trioctylammonium chloride] in this work.
